Holding throughout (assay): MIC, broth microdilution (NCCLS)
Common to all, as to format: cell-based

The test system of assay [1] is Streptococcus pneumoniae Stpn_280-962. The settings on record: Table 10, Strain ID O (Table 8): Streptococcus pneumoniae Stpn_280-962. Summed up:
(§1)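 NCCLS broth microdilution with 2-fold serial drug dilutions (methanol stocks diluted in water); inoculum 3×10^5–7×10^5 CFU/ml in CAMHB, with 2-5% lysed horse blood for S. pneumoniae. Incubation 18-24 h at 35° C., ambient air, except S. pneumoniae (5-10% CO2). MIC is lowest concentration preventing visible growth.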

In assay [2] the test system is Streptococcus pneumoniae Stpn_49619. Particulars: Table 10, Strain ID M (Table 8): Streptococcus pneumoniae Stpn_49619. Summed up:
as §1

For assay [3], the system named is Streptococcus pyogenes Stpy_8668. The settings on record: Table 10, Strain ID G (Table 8): Streptococcus pyogenes Stpy_8668. Summed up:
as §1

In assay [4] the test system is Streptococcus pneumoniae Stpn_Mef S 3427. Particulars: Table 10, Strain ID Q (Table 8): Streptococcus pneumoniae Stpn_Mef S 3427; in µg/mL (unit assumed). Summed up: as §1
Assay [5] concerns Staphylococcus epidermidis Step_14990. The settings on record: Table 10, Strain ID C (Table 8): Staphylococcus epidermidis Step_14990; in µg/mL (unit assumed). In outline: as §1
The test system of assay [6] is Enterococcus faecalis Enfa_29212. The settings on record: Table 10, Strain ID E (Table 8): Enterococcus faecalis Enfa_29212. Summed up:
as §1

For assay [7], the system named is Staphylococcus aureus Stau_29213. The settings on record: Table 10, Strain ID A (Table 8): Staphylococcus aureus Stau_29213; in µg/mL (unit assumed). In outline:
as §1

For assay [8], the system named is Streptococcus pneumoniae Stpn_Erm S 4297. The settings on record: Table 10, Strain ID R (Table 8): Streptococcus pneumoniae Stpn_Erm S 4297. Summed up:
as §1

The subject of assay [9] is Haemophilus influenzae Hain_49247. The settings on record: Table 10, Strain ID H (Table 8): Haemophilus influenzae Hain_49247; unit assumed.
Assay [10] concerns Staphylococcus epidermidis Step_f50654. The settings on record: Table 10, Strain ID D (Table 8): Staphylococcus epidermidis Step_f50654; in µg/mL (unit assumed). In outline: as §1
The subject of assay [11] is Streptococcus pneumoniae Stpn_297-749. The settings on record: Table 10, Strain ID N (Table 8): Streptococcus pneumoniae Stpn_297-749. Summed up: as §1
Assay [12] deals with Haemophilus influenzae Hain_2762. Particulars: Table 10, Strain ID L (Table 8): Haemophilus influenzae Hain_2762; in µg/mL (unit assumed). As for the experimental part:
(§2) Strains. The bacterial isolates listed in Table 8 were cultivated from −70° C. frozen stocks by two consecutive overnight passages (P1, P2) at 35° C. on 5% blood agar (Remel, Lenexa, Kans.). Chocolate agar (Remel) is used for Haemophilus influenzae. H. influenzae and Streptococcus pneumoniae are incubated in 5-10% CO2
(§3) Drug Stock Preparation. To determine the amount of solvent to be used to give the desired final concentration, the formula “weight obtained in mg/final concentration in mg/ml” will be used. It will give the amount of solvent in ml needed to be added to give the desired concentration. For example, if 2.5 mg/ml is the desired concentration and the weight of compound is 13.7 mg, then the amount of solvent to be added is […]. Methanol is used as the solvent to dissolve the test compounds. Further dilution of stock is done in sterile, deionized water. Drug stocks are kept frozen at −70° C., protected from light.
(§4) Susceptibility Testing. MICs are determined by the broth microdilution method in accordance with the NCCLS guidelines. In brief, organism suspensions are adjusted to a 0.5 McFarland standard to yield a final inoculum between 3×10^5 and 7×10^5 CFU/ml. Drug dilutions and inocula are made in sterile, cation adjusted Mueller-Hinton Broth (CAMHB) (Remel) for all but S. pneumoniae [CAMHB with 2-5% lysed horse blood (Remel)] and H. influenzae [Haemophilus Test Medium (Remel)]. An inoculum volume of 100 μl is added to wells containing 100 μl of broth with 2-fold serial dilutions of drug. All inoculated microdilution trays are incubated in ambient air at 35° C. for 18-24 hours, except for S. pneumoniae, and H. influenzae (both at 5-10% CO2).
(§5) Following appropriate incubation, the MIC is determined and the MIC is defined as the lowest concentration of the drug that prevented visible growth. […] Antibacterial activity of representative compounds of the invention were compared against telitromycin.

Assay [13] has as its system Enterococcus faecalis Enfa_bc 11148-2. The settings on record: Table 10, Strain ID F (Table 8): Enterococcus faecalis Enfa_bc 11148-2; in µg/mL (unit assumed). As for the experimental part:
as §2, §3, §4, §5

The test system of assay [14] is Haemophilus influenzae Hain_960730503-3. The settings on record: Table 10, Strain ID I (Table 8): Haemophilus influenzae Hain_960730503-3; in µg/mL (unit assumed). Here is the method: as §2, §3, §4, §5
The test system of assay [15] is Haemophilus influenzae Hain_953460299-3. The settings on record: Table 10, Strain ID K (Table 8): Haemophilus influenzae Hain_953460299-3; in µg/mL (unit assumed). Here is the method:
as §2, §3, §4, §5

For assay [16], the system named is Haemophilus influenzae Hain_960820544-3. The settings on record: Table 10, Strain ID J (Table 8): Haemophilus influenzae Hain_960820544-3; in µg/mL (unit assumed). Here is the method: as §2, §3, §4, §5
In assay [17] the test system is Staphylococcus aureus Stau_33591. Particulars: Table 10, Strain ID B (Table 8): Staphylococcus aureus Stau_33591; unit assumed. Here is the method:
as §2, §3, §4, §5

In assay [18] the test system is Streptococcus pneumoniae Stpn_Mef 5654. The settings on record: Table 10, Strain ID P (Table 8): Streptococcus pneumoniae Stpn_Mef 5654; in µg/mL (unit assumed). In outline:
as §1

Each structure is given as a SMILES string. Values after ≈ are worked out from the molar mass of the structure shown.

Take `CC[C@H]1OC(=O)[C@H](C)C(=O)[C@H](C)[C@@H](OC2O[C@H](C)C[C@H](N(C)C)[C@H]2O)[C@@](C)(OC)C[C@@H](C)C(=O)[C@H](C)[C@H]2N(CCCCn3cnc(-c4ccc(C)nc4)c3)C(=O)O[C@]12CC` (stereo partly shown) [XIII]: the MIC entry in [1] is on record as “=0.05”; in assay [2], “=0.05”; in assay [3] it was “=0.05”; in [4], 0.2; in assay [5], 0.2; in [6] (in µg/mL (unit assumed)), 0.2. Moreover, the MIC was 0.4 in assay [7]; 0.2 µg/mL (≈ 0.238 µM) in assay [8] (unit assumed); 6.25 µg/mL (≈ 7.44 µM) in [9]; 0.4 in assay [10]; “=0.05” in assay [11]; 1.56 in assay [12]. Besides, the MIC is 3.13 in assay [13]; 6.25 in assay [14]; 6.25 in assay [15]; 6.25 in assay [16]; more than 50 µg/mL in assay [17]; 0.78 in assay [18].

On to `CC[C@H]1OC(=O)[C@H](C)C(=O)[C@H](C)[C@@H](OC2O[C@H](C)C[C@H](N(C)C)[C@H]2O)[C@@](C)(OC)C[C@@H](C)C(=O)[C@H](C)[C@H]2N(CCCCn3cnc(-c4ccc(OC)nc4)c3)C(=O)O[C@]12CC` (stereo partly shown) [XVII], for which the MIC entry is “=0.05” in assay [1]; “=0.05” in [2]; “=0.05” in assay [3]; 0.2 in assay [4]; 0.4 in [5]; 0.1 in assay [6] (in µg/mL (unit assumed)). The MIC was 0.2 in [7]; 0.2 µg/mL (≈ 0.234 µM) in assay [8] (unit assumed); 6.25 µg/mL (≈ 7.3 µM) in assay [9]; 0.2 in assay [10]; “=0.05” in [11]; 1.56 in [12]. Further, the MIC in assay [13] is 3.13; in assay [14], 6.25; in assay [15], 12.5; in assay [16], 12.5; in assay [17], more than 50 µg/mL; in [18], 0.78.

Take `CC[C@H]1OC(=O)[C@H](C)C(=O)[C@H](C)[C@@H](OC2O[C@H](C)C[C@H](N(C)C)[C@H]2O)[C@@](C)(OC)C[C@@H](C)C(=O)[C@H](C)[C@H]2N(CCCCn3cnc(-c4ccc(Cl)nc4)c3)C(=O)O[C@]12CC` (stereo partly shown) [XXI]: the MIC entry in assay [1] is reported as “=0.05”; in assay [2], “=0.05”; in assay [3], “=0.05”; in [4], 0.2; in assay [5] it was 0.1; in assay [6] it was “=0.05”. The MIC in assay [7] is 0.1; in [8] (unit assumed), 0.1 µg/mL (≈ 0.116 µM); in [9] it was 3.13 µg/mL (≈ 3.64 µM); in assay [10] it was 0.1; in [11] it was “=0.05”; in assay [12], 0.78. Besides, the MIC in [13] was 1.56; in assay [14] it was 6.25; in assay [15], 6.25; in assay [16], 6.25; in [17], more than 50 µg/mL; in assay [18], 0.78.

For the compound `C=C[C@]12OC(=O)N(CCCCn3cnc(-c4ccc(F)nc4)c3)[C@@H]1[C@@H](C)C(=O)[C@H](C)C[C@](C)(OC)[C@H](OC1O[C@H](C)C[C@H](N(C)C)[C@H]1O)[C@@H](C)C(=O)[C@@H](C)C(=O)O[C@@H]2CC` (stereo partly shown) [XIX], the MIC entry in assay [1] is listed as “=0.05”; in assay [2] it was “=0.05”; in assay [3], “=0.05”; in [4] it was 0.1; in assay [5], 0.1; in assay [6] (in µg/mL (unit assumed)) it was 0.1. Moreover, the MIC was 0.1 in assay [7]; “=0.05” in assay [8]; 3.13 µg/mL (≈ 3.72 µM) in [9]; 0.1 in assay [10]; “=0.05” in assay [11]; 1.56 in assay [12]. In addition, the MIC in [13] is 0.4; in assay [14], 12.5; in assay [15] it was 6.25; in assay [16], 6.25; in assay [17], more than 50 µg/mL; in assay [18] it was 0.4.

On to `CC[C@H]1OC(=O)[C@H](C)C(=O)[C@H](C)[C@@H](OC2O[C@H](C)C[C@H](N(C)C)[C@H]2O)[C@@](C)(OC)C[C@@H](C)C(=O)[C@H](C)[C@@H]2[C@@H]1OC(=O)N2CCCCn1cnc(-c2ccc(C)nc2)c1` (stereo partly shown) [XXV], for which the MIC entry is reported as “=0.05” in assay [1]; “=0.05” in assay [2]; “=0.05” in [3]; “.04” in [4]; 0.2 in assay [5]; 0.1 in assay [6] (in µg/mL (unit assumed)). Moreover, the MIC was 0.2 in assay [7]; 3.13 µg/mL (≈ 3.85 µM) in [9]; 0.2 in [10]; “=0.05” in assay [11]; 1.56 in assay [12]; 3.13 in assay [13]. Further, the MIC in [14] is 6.25; in assay [15], 6.25; in assay [16], 6.25; in assay [17], more than 50 µg/mL; in [18], 1.56.

For the compound `C=C[C@]12OC(=O)N(CCCCn3cc(-c4ccc(OC)nc4)nc3C)[C@@H]1[C@@H](C)C(=O)[C@H](C)C[C@](C)(OC)[C@H](OC1O[C@H](C)C[C@H](N(C)C)[C@H]1O)[C@@H](C)C(=O)[C@@H](C)C(=O)O[C@@H]2CC` (stereo partly shown) [XXVII], the MIC result in assay [1] was “=0.05”; in assay [2] it was “=0.05”; in [3] (unit assumed), 0.1 µg/mL (≈ 0.115 µM); in assay [4], 0.2; in assay [5] it was 0.2; in [6] (in µg/mL (unit assumed)), 0.2. Moreover, the MIC in assay [7] was 0.2; in assay [9], 6.25 µg/mL (≈ 7.2 µM); in assay [10], 0.2; in assay [11], “=0.05”; in assay [12] it was 1.56; in assay [13] it was 6.25. For the same compound, the MIC in [14] is 12.5; in [15] it was 12.5; in [16], 6.25; in [17], more than 50 µg/mL; in assay [18] it was 1.56.

(Values after patent publication US7332476B2, “Pyridyl substituted ketolide antibiotics” (Novartis AG, priority 2003, dated 2008).)
